Test systems include SF-295; CCRF-CEM; MDA-MB-231; SR; SK-MEL-5; SK-MEL-2; SK-OV-3; LOX IMVI; K562; SF-268; SN12C; TK-10; M14; DU-145; HOP-62; RXF 393; CAKI-1; A498; NCI-H226; HCT-15.
What all share (test): NCI tumour cell line growth inhibition, 48 h

The source of these data is ChEMBL document CHEMBL1201862, “PubChem BioAssay data set” (2004).

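Cultured in 96-well plates, cells were exposed to test compound for 48 hours across five concentrations. GI50 is the concentration that inhibits growth by half.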 The source made the active and inactive calls. Rule as the data show it: active = GI50 up to about 1.1 µM and inactive = higher.

For the compound `N#Cc1nc(C(F)(F)F)oc1N`, the GI50 is > 100 µM (inactive) with SF-295; 95.3 µM (inactive) in the test on CCRF-CEM; > 100 µM (inactive) in the test on MDA-MB-231; > 100 µM (inactive) in the test with SR; > 100 µM (inactive) with SK-MEL-5; > 100 µM (inactive) in the test with SK-MEL-2. Further, the GI50 in the test on SK-OV-3, in the test on LOX IMVI, with K562, in the test on SF-268, with SN12C and with TK-10 was > 100 µM (inactive) in each case. The GI50 with M14, in the test on DU-145, in the test with HOP-62, in the test on RXF 393, in the test with CAKI-1 and in the test with A498 was > 100 µM (inactive) in each case. The GI50 in the test on NCI-H226 is > 100 µM (inactive); in the test on HCT-15, above 100 µM.

For the compound `COC(=O)c1c(C)nc(C)c(N=O)c1-c1ccccc1C(F)(F)F`, the GI50 with SF-295 was > 100 µM (inactive); in the test with CCRF-CEM, 6 µM (inactive); with MDA-MB-231 it was 18 µM (inactive); with SR, 13.7 µM (inactive); in the test with SK-MEL-5 it was 26.5 µM (inactive); in the test on SK-MEL-2, 36.1 µM (inactive). The GI50 in the test on SK-OV-3 was > 100 µM (inactive); with LOX IMVI, 14.7 µM (inactive); in the test on K562, 8.41 µM (inactive); in the test on SF-268 it was 15.8 µM (inactive); with SN12C, 21.3 µM (inactive); in the test on TK-10, 13.8 µM (inactive). The GI50 in the test on M14 is 20 µM (inactive); in the test on DU-145, > 100 µM (inactive); in the test on HOP-62, > 100 µM (inactive); in the test on RXF 393, 15.3 µM (inactive); with CAKI-1 it was 11 µM (inactive); in the test with A498, > 100 µM (inactive). Moreover, the figures for the GI50 in the test with NCI-H226 and in the test on HCT-15 were 19.4 µM (inactive) and 20.3 µM, respectively.

`COc1ccc2c(C(=O)c3cn(CCN4CCOCC4)c4ccccc34)cccc2c1`: the GI50 was 5.6 µM (inactive) in the test on SF-295; 4.45 µM (inactive) in the test with CCRF-CEM; > 100 µM (inactive) in the test on MDA-MB-231; 47.5 µM (inactive) in the test with SR; 60 µM (inactive) in the test with SK-MEL-5; > 100 µM (inactive) in the test on SK-MEL-2. The GI50 in the test on SK-OV-3 is 4.22 µM (inactive); in the test on LOX IMVI, 22.3 µM (inactive); with K562, 36.6 µM (inactive); with SF-268 it was > 80.2 µM (inactive); with SN12C it was > 71.4 µM (inactive); in the test on TK-10, > 100 µM (inactive). In addition, the GI50 in the test on M14 is > 31.1 µM (inactive); in the test with DU-145, > 23.6 µM (inactive); in the test with HOP-62 it was > 22 µM (inactive); with RXF 393 it was > 67.6 µM (inactive); in the test on CAKI-1 it was > 46 µM (inactive); with A498, > 100 µM (inactive). Besides, the GI50 is > 100 µM (inactive) with NCI-H226 and 51.8 µM in the test with HCT-15.

`C=C1C(=O)O[C@H]2[C@H]3O[C@@H](C[C@@H]12)[C@@]1(C)CC[C@H](O1)C(C)=CCC[C@H]3C`: the GI50 in the test with SF-295 was 5.16 µM (inactive); with CCRF-CEM, 0.324 µM (active); in the test on MDA-MB-231 it was 1.62 µM (inactive); in the test with SR it was 0.065 µM (active); in the test with SK-MEL-5, 1.49 µM (inactive); in the test with SK-MEL-2, 1.93 µM (inactive). For the same compound, the GI50 with SK-OV-3 is 4.58 µM (inactive); in the test on LOX IMVI, 1.52 µM (inactive); with K562, 1.08 µM (active); in the test on SF-268, 1.45 µM (inactive); in the test on SN12C, 1.65 µM (inactive); in the test with TK-10, 1.58 µM (inactive). Besides, the GI50 in the test with M14 was 1.65 µM (inactive); in the test with DU-145 it was 1.49 µM (inactive); with HOP-62, 6.27 µM (inactive); in the test with RXF 393, 1.48 µM (inactive); in the test with CAKI-1, 1.28 µM (inactive); in the test with A498, 1.63 µM (inactive). Besides, the GI50 in the test on NCI-H226 was 2.46 µM (inactive); in the test on HCT-15, 1.49 µM.
